Reference: patent EP3436024B1, “3-BETA-METHOXY-PREG FOR USE IN THE TREATMENT OF TREATMENT RESISTANT DEPRESSION” (Mapreg, priority 2016, dated 2017)

What was measured:
[1] = tested on: Wistar Kyoto (WKY) rats; assay: Locomotor activity in the open-field arena, WKY rats; assay type: in vivo, rat; conditions: acute, fluoxetine 10 mg/kg i.p., ketamine 30 mg/kg i.p., 3 min, Fig. 5A
Experimental: (§1) After a 6-day period of acclimatization, all experimental groups received daily successive subcutaneous (250 µl per rat) and intraperitoneal (1 ml/kg) injections. WI rats received injection of vehicle (sesame oil + saline) while WKY rats were randomly assigned to […], as follow: KWY rats receiving only vehicle (sesame oil + saline) and WKY rats treated with MAP4343 (10 mg/kg, s.c.; rats received in parallel i.p. injections of saline), fluoxetine (10 mg/kg i.p., rats received in parallel s.c. injections of sesame oil) or ketamine (30 mg/kg, i.p.; rats received in parallel s.c. injections of sesame oil) (see Figure 3).
(§2) After, a 6-day period of acclimatization, the acute phase of treatment started for 4 days during behavioral tests were performed (Figure 3). All animals were injected 1h30 before the starting of behavioral test.
(§3) The animals were individually placed in the open field arena (OFA) (70 x 100 x 70 cm), with a central square (35 x 50 cm), located in a 50 lux illuminated room and videotaped during 3 min using a computerized system (VideoTrack V2.5, ViewPoint, Lyon, France).
(§4) OFA allows firstly the evaluation of total locomotor activity (LMA) thereby measuring the total distance travelled in the arena (in cm). Secondly, measurements of the activity in the center of the arena like (i) the number of entries in the center of arena and (ii) the total time spent in the center of arena (in sec) provide cues of anxiety-like behavior (Prut and Belzung, 2003). All these behavioral parameters were instantaneously measured automatically with the VideoTrack V2.5 software from the videos.

[2] = tested on: Wistar Kyoto (WKY) rats; assay: Anxious-like behavior: activity in the central square of the open-field arena, WKY rats; assay type: in vivo, rat; conditions: acute, MAP4343 10 mg/kg s.c., fluoxetine 10 mg/kg i.p., ketamine 30 mg/kg i.p.
Experimental: as §1, §2, §3, §4

[3] = tested on: Wistar Kyoto (WKY) rats; assay: Elevated-plus maze (EPM), WKY rats; assay type: in vivo, rat; conditions: acute, fluoxetine 10 mg/kg, Fig. 5D
Experimental: as §1, §2
We used the elevated-plus maze (EPM) as an assay of anxiety-related behavior in rodents (Walf and Frye, 2007). Rats were initially placed in the center of the plus-maze, consisting of two open arms (50 x 10 cm) and two closed arms (50 x 10 cm enclosed by 40 cm walls), in a 50 lux illuminated room and videotaped during 5 min using a computerized system (VideoTrack V2.5, ViewPoint, Lyon, France). The time spent in the open versus closed arms was blindly measured by two independent experimenters from the recorded video, and the open arm-index was calculated as follow: time in the open arms (sec) / [time in open arms (sec) + time in closed arms (sec)].

[4] = tested on: Wistar Kyoto (WKY) rats; assay: Forced swimming test (FST), WKY rats; assay type: in vivo, rat; conditions: acute administration (4 days), MAP4343 10 mg/kg, fluoxetine 10 mg/kg i.p., ketamine 30 mg/kg i.p., Fig. 6C
Experimental: 3B-methoxy-PREG (also referred to as "MAP4343" in Example 4) was dissolved in sesame oil by sonication using a Sonifer-450 (Branson Ultrasonics Corporation, Danbury, USA) during 1 cycle of 5 pulses in sesame oil. Fluoxetine (Biotrend, Köln, Germany) and Ketamine (Sigma-Aldrich, St-Quentin Fallvier, France) were dissolved in sterile saline solution (NaCl 0.9%). The drug formulations were prepared freshly each day of treatment. MAP4343 was administered subcutaneously (ranging of 1-15 mg/Kg/day) while fluoxetine and ketamine were injected intraperitonealy (10 mg/Kg/day and 30 mg/Kg/day, respectively).
After a 6-day period of acclimatization, all experimental groups received daily successive subcutaneous (250 µl per rat) and intraperitoneal (1 ml/kg) injections. […]
Rats were submitted to the forced swimming test (FST), according the procedure initially described by (Detke et al., 1995) and slightly modified by (Bianchi et al., 2002). […] The pre-test and test sessions were recorded using a video camera placed above the cylinder for subsequent behavioral analysis. The immobility time (in sec) was blindly measured by two independent experimenters from recorded videos. […]
The effects of a dose-ranging administration of MAP4343 were tested in WI and WKY rats on their immobility time measured in FST.

[5] = Body weight of treated WKY rats; assay type: in vivo; conditions: fluoxetine 10 mg/kg i.p., 4 days

For `CNCCC(Oc1ccc(C(F)(F)F)cc1)c1ccccc1` (centres unmarked) [fluoxetine], the “locomotor activity (total distance travelled in the open-field arena), change as compared to WKY receiving vehicle” value ([1]; MAP4343 10 mg/kg s.c.) was -45%, the “locomotor activity (total distance travelled in the open-field arena), change as compared to MAP4343-treated WKY” value [1] was -52% and the “number of entries in the central square of OFA, change as compared to WKY receiving only vehicle” value ([2]; Fig. 5B) was “failed to significantly modify”. For the same compound, the “time spent in the center of open-field, change as compared to WKY receiving vehicle” value ([2]; Fig. 5C) was “did not induce any significant change”, the “open-arm (OA) index, change when compared to WKY receiving vehicle alone” value ([3]; MAP4343 10 mg/kg s.c., ketamine 30 mg/kg i.p.) was -84% and the “open-arm (OA) index, change when compared to MAP4343-treated WKY” value [3] was -95%. For the same compound, the “immobility time measured in FST, change when compared to WKY rats receiving vehicle alone” value [4] was “+29%” and the body weight [5] was “reduced body weight”.
